Test results: ChEMBL document CHEMBL1123356, “Plant antitumor agents. 22. Isolation of 11-hydroxycamptothecin from Camptotheca acuminata Decne: total synthesis and biological activity” (1986)

Assays:
Type in all cases: functional, Mus musculus
L1210 [1] = assay: Compound was tested for active dose in L1210 Leukemia assay; 7.5-60 mg/kg
L1210 [2] = assay: Compound was tested for maximum percentage T/C in L1210 Leukemia assay at 60 mg/kg (3 cures out of 6)
L1210 [3] = assay: Compound was tested for active dose in L1210 Leukemia assay; 2-8 mg/kg
L1210 [4] = assay: Compound was tested for maximum percentage T/C in L1210 Leukemia assay at 8 mg/kg (no cures out of 6)
L1210 [5] = assay: Compound was tested for toxic dose in L1210 Leukemia assay
L1210 [6] = assay: Compound was tested for maximum percentage T/C in L1210 Leukemia assay at 40 mg/kg (no cures out of 6)
L1210 [7] = assay: Compound was tested for active dose in L1210 Leukemia assay; 10-40 mg/kg

Structure (SMILES)	Active dose (L1210 [1]) [mg/kg]	T/C (L1210 [2]) [%]	Active dose (L1210 [3]) [mg/kg]	T/C (L1210 [4]) [%]	Toxic dose (L1210 [5]) [mg/kg]	T/C (L1210 [6]) [%]	Active dose (L1210 [7]) [mg/kg]
CC[C@@]1(O)C(=O)OCc2c1cc1n(c2=O)Cc2cc3ccc(O)cc3nc2-1 (racemic)	7.5	357					
CC[C@@]1(O)C(=O)OCc2c1cc1n(c2=O)Cc2cc3ccccc3nc2-1 [CAMPTOTHECIN]			2	164	16		
CC[C@@](O)(C(=O)[O-])c1cc2n(c(=O)c1CO)Cc1cc3ccccc3nc1-2.[Na+]					80	178	10
